Test results from ChEMBL document CHEMBL6134893, “The Exploration of Indole-Based LSD1-Targeted Inhibitors for Enhanced Immune Response in Gastric Cancer via the PD-L1/PD-1 Axis” (J Med Chem, 2025).
The source made the active and inactive calls. No cut-off for these calls is given here.

How the values were obtained:
[1] = target: T1, Lysine-specific histone demethylase 1A (Homo sapiens, UniProt O60341); assay: Inhibition of LSD1 in human MKN-45 cells assessed as accumulation of membrane PD-L1 at 2 uM incubated for 5 days; type: cell-based; parameters: scale not given: the % may be the effect or the level left; conditions: time 5.0 day
[2] = target: T1, Lysine-specific histone demethylase 1A; assay: Inhibition of LSD1 in human MKN-45 cells assessed as decrease in demethylation of H3K4me1 incubated for 5 days by Western blot analysis; type: cell-based; conditions: dose 1-4 µM, time 5.0 day
[3] = test system: MFC; assay: In vivo induction of T-cell infiltration in mouse MFC cells implanted in 615 mouse assessed as increase in CD3+ CD8+ T cells at 10 mg/kg, IG treated daily for 14 days by flow cytometry (reference value: 2.79 %); type: functional; conditions: time 14 day
[4] = target: T1, Lysine-specific histone demethylase 1A; assay: Inhibition of LSD1 in human MKN-45 cells; type: cell-based
[5] = test system: MFC; assay: Antitumor activity against mouse MFC cells implanted in 615 mouse assessed as tumor growth suppression treated intragastrically daily for 14 days; type: functional, cell-based; conditions: dose 10-50 mg/kg, route ig, time 14.0 day
[6] = target: Programmed cell death protein 1/Programmed cell death 1 ligand 1 (Homo sapiens) (UniProt Q15116+Q9NZQ7); assay: Inhibition of PD-1/PD-L1 interaction in human MKN-45 cells pretreated for 5 days followed by PD-1-Fc addition by DAPI staining based confocal microscopy; type: cell-based; conditions: dose 1-4 µM, time 5.0 day
[7] = test system: MKN-45; assay: Effect on H3K4me3 demethylation in human MKN-45 cells at 1 to 4 uM incubated for 5 days by Western blot analysis; type: functional, cell-based; conditions: dose 1-4 µM, time 5.0 day
[8] = target: Lysine-specific histone demethylase 1A (Mus musculus) (UniProt Q6ZQ88); assay: Inhibition of LSD1 in mouse MFC cells assessed as accumulation of membrane PD-L1 at 1 uM incubated for 5 days (reference value: 63.0 %); type: cell-based; parameters: scale not given: the % may be the effect or the level left; conditions: time 5.0 day
[9] = test system: Mus musculus; assay: In vivo induction of T-cell response in mouse MFC cells implanted in 615 mouse assessed as increase in IFN-gamma mRNA level at 10 to 50 mg/kg, IG treated daily for 14 days by PCR analysis; type: functional, organism-based; conditions: dose 10-50 mg/kg, time 14.0 day
[10] = test system: MKN-45; assay: Inhibition of cell migration in human MKN-45 cells at 1 to 4 uM incubated up to 48 hrs by wound healing assay; type: functional, cell-based; conditions: dose 1-4 µM
[11] = test system: MFC; assay: Antitumor activity against mouse MFC cells implanted in 615 mouse assessed as decrease PD-L1 expression treated intragastrically daily for 14 days by Western blot analysis; type: functional, cell-based; conditions: dose 10-50 mg/kg, route ig, time 14.0 day
[12] = test system: MKN-45; assay: Induction of T-cell killing response in human MKN-45 cells assessed as increase in IL-2 secretion at 1 to 4 uM pretreated for 5 days followed by co-culturing with human PBMC-derived T cells for 4 days by ELISA; type: functional, cell-based; conditions: dose 1-4 µM, time 5.0 day
[13] = Toxicity in 615 mouse implanted with mouse MFC cells assessed as histological change in spleen at 10 to 50 mg/kg, IG treated daily for 14 days by H and E staining based analysis; type: organism-based; conditions: in vivo, po, 336 h, dose 10-50 mg/kg, time 14 day
[14] = test system: MFC; assay: Induction of T-cell killing response in mouse MFC cells assessed as increase in IFN-gamma secretion at 1 to 4 uM pretreated for 5 days followed by co-culturing with human PBMC-derived T cells for 4 days by ELISA; type: functional, cell-based; conditions: dose 1-4 µM, time 5.0 day
[15] = target: T1, Lysine-specific histone demethylase 1A; assay: Inhibition of LSD1 in human MKN-45 cells assessed as reduction in PD-L1 level incubated for 5 days by Western blot analysis; type: cell-based; conditions: dose 1-4 µM, time 5.0 day
[16] = test system: MKN-45; assay: Induction of T-cell killing response in human MKN-45 cells assessed as increase in IFN-gamma secretion at 1 to 4 uM pretreated for 5 days followed by co-culturing with human PBMC-derived T cells for 4 days by ELISA; type: functional, cell-based; conditions: dose 1-4 µM, time 5.0 day
[17] = target: T1, Lysine-specific histone demethylase 1A; assay: Inhibition of recombinant LSD1 (unknown origin) extracted from Escherichia coli BL21 (DE3) using H3K4me2 peptide as substrate in presence of […] by Amplex Red assay
[18] = target: T1, Lysine-specific histone demethylase 1A; assay: Inhibition of LSD1 in human MKN-45 cells assessed as decrease in demethylation of H3K4me2 incubated for 5 days by Western blot analysis; type: cell-based; conditions: dose 1-4 µM, time 5.0 day
[19] = Toxicity in 615 mouse implanted with mouse MFC cells assessed as histological change in lung at 10 to 50 mg/kg, IG treated daily for 14 days by H and E staining based analysis; type: organism-based; conditions: in vivo, po, 336 h, dose 10-50 mg/kg, time 14 day
[20] = test system: MKN-45; assay: Induction of T-cell killing response in human MKN-45 cells harboring LSD1-KO assessed as decrease in cell viability at 1 to 4 uM pretreated for 5 days followed by co-culturing with human PBMC-derived T cells for 4 days by CCK8 assay; type: functional, cell-based; conditions: dose 1-4 µM, time 5.0 day
[21] = test system: MFC; assay: Antitumor activity against mouse MFC cells implanted in 615 mouse assessed as decrease in tumor weight at 10 to 50 mg/kg, IG treated daily for 14 days; type: functional, organism-based; conditions: dose 10-50 mg/kg, time 14.0 day
[22] = target: T1, Lysine-specific histone demethylase 1A; assay: Inhibition of LSD1 in human MKN-45 cells assessed as accumulation of membrane PD-L1 at 1 uM incubated for 5 days (reference value: 58.4 %); type: cell-based; parameters: scale not given: the % may be the effect or the level left; conditions: time 5.0 day
[23] = Toxicity in 615 mouse implanted with mouse MFC cells assessed as histological change in liver at 10 to 50 mg/kg, IG treated daily for 14 days by H and E staining based analysis; type: organism-based; conditions: in vivo, po, 336 h, dose 10-50 mg/kg, time 14 day
[24] = test system: MKN-45; assay: Effect on H3K4me2 demethylation in human MKN-45 cells harboring LSD1-KO at 1 to 4 uM incubated for 5 days by Western blot analysis; type: functional, cell-based; conditions: dose 1-4 µM, time 5.0 day
[25] = target: T1, Lysine-specific histone demethylase 1A; assay: Induction of thermal stabilization of LSD1 in human MKN-45 cells incubated for 5 days followed by heat exposure at 40 to 55 degreeC by CETSA; type: cell-based; conditions: time 5.0 day
[26] = test system: MFC; assay: Induction of T-cell killing response in mouse MFC cells assessed as decrease in cell viability at 1 to 4 uM pretreated for 5 days followed by co-culturing with human PBMC-derived T cells for 4 days by CCK8 assay; type: functional, cell-based; conditions: dose 1-4 µM, time 5.0 day
[27] = test system: MKN-45; assay: Induction of T-cell killing response in human MKN-45 cells assessed as decrease in cell viability pretreated for 5 days followed by co-culturing with human PBMC-derived T cells for 4 days by CCK8 assay; type: functional, cell-based; conditions: dose 1-4 µM, time 5.0 day
[28] = test system: MFC; assay: In vivo induction of T-cell infiltration in mouse MFC cells implanted in 615 mouse assessed as increase in CD3+ CD8+ T cells at 50 mg/kg, IG treated daily for 14 days by flow cytometry (reference value: 2.79 %); type: functional; conditions: time 14 day
[29] = Toxicity in 615 mouse implanted with mouse MFC cells assessed as histological change in heart at 10 to 50 mg/kg, IG treated daily for 14 days by H and E staining based analysis; type: organism-based; conditions: in vivo, po, 336 h, dose 10-50 mg/kg, time 14 day
[30] = target: Lysine-specific histone demethylase 1A (Mus musculus) (UniProt Q6ZQ88); assay: Inhibition of LSD1 in mouse MFC cells assessed as reduction in PD-L1 level incubated for 5 days by Western blot analysis; type: cell-based; conditions: time 5.0 day
[31] = test system: MFC; assay: In vivo induction of T-cell infiltration in mouse MFC cells implanted in 615 mouse assessed as increase in CD3+ CD8+ T cells at 25 mg/kg, IG treated daily for 14 days by flow cytometry (reference value: 2.79 %); type: functional; conditions: time 14 day
[32] = test system: MFC; assay: Antitumor activity against mouse MFC cells implanted in 615 mouse assessed as decrease Ki67 expression at 10 to 50 mg/kg, IG treated daily for 14 days by IHC analysis; type: functional, organism-based; conditions: dose 10-50 mg/kg, time 14.0 day
[33] = test system: MKN-45; assay: Effect on H3K4me1 demethylation in human MKN-45 cells harboring LSD1-KO at 1 to 4 uM incubated for 5 days by Western blot analysis; type: functional, cell-based; conditions: dose 1-4 µM, time 5.0 day
[34] = Toxicity in 615 mouse implanted with mouse MFC cells assessed as histological change in kidney at 10 to 50 mg/kg, IG treated daily for 14 days by H and E staining based analysis; type: organism-based; conditions: in vivo, po, 336 h, dose 10-50 mg/kg, time 14 day
[35] = test system: Mus musculus; assay: In vivo induction of T-cell response in mouse MFC cells implanted in 615 mouse assessed as increase in IL-2 mRNA level at 10 to 50 mg/kg, IG treated daily for 14 days by PCR analysis; type: functional, organism-based; conditions: dose 10-50 mg/kg, time 14.0 day
[36] = test system: MKN-45; assay: Inhibition of cell invasion in human MKN-45 cells at 1 to 4 uM incubated for 2 days by crystal violet staining based transwell assay; type: functional; conditions: dose 1-4 µM, time 2.0 day
[37] = target: Lysine-specific histone demethylase 1A (Mus musculus) (UniProt Q6ZQ88); assay: Inhibition of LSD1 in mouse MFC cells assessed as accumulation of membrane PD-L1 at 2 uM incubated for 5 days; type: cell-based; parameters: scale not given: the % may be the effect or the level left; conditions: time 5.0 day
[38] = test system: MKN-45; assay: Effect on PD-L1 expression in human MKN-45 cells harboring LSD1-KO at 1 to 4 uM incubated for 5 days by Western blot analysis; type: functional, cell-based; conditions: dose 1-4 µM, time 5.0 day
[39] = target: Lysine-specific histone demethylase 1A (Mus musculus) (UniProt Q6ZQ88); assay: Inhibition of LSD1 in mouse MFC cells assessed as accumulation of membrane PD-L1 at 4 uM incubated for 5 days (reference value: 63.0 %); type: cell-based; parameters: scale not given: the % may be the effect or the level left; conditions: time 5.0 day
[40] = Toxicity in 615 mouse implanted with mouse MFC cells assessed as body weight change at 10 to 50 mg/kg, IG treated daily for 14 days; type: organism-based; conditions: in vivo, po, 336 h, dose 10-50 mg/kg, time 14 day
[41] = target: T1, Lysine-specific histone demethylase 1A; assay: Inhibition of LSD1 in human MKN-45 cells assessed as accumulation of membrane PD-L1 at 4 uM incubated for 5 days (reference value: 58.4 %); type: cell-based; parameters: scale not given: the % may be the effect or the level left; conditions: time 5.0 day

- Activity [1]: 47.3%
- inhibition [2]: Dose-dependent-effect
- IC50 [4]: 80.3 nM
- Activity [8]: 59.7%
- inhibition [15]: Dose-dependent-effect
- IC50 [17]: 80 nM
- inhibition [18]: Dose-dependent-effect
- Activity [22]: 49.5%
- Activity [25]: Active
- inhibition [30]: Dose-dependent-effect
- Activity [37]: 45.6%
- Activity [39]: 16%
- Activity [41]: 39.1%
Structure (SMILES): C=C1C(=O)OCC1C(O)c1cn(S(=O)(=O)c2ccc(N(C)C)c([N+](=O)[O-])c2)c2ccc(Cl)cc12 (stereo unspecified)
- Activity [3]: 4.92%
- Activity [5]: Dose-dependent-effect
- inhibition [6]: Dose-dependent-effect
- Activity [7]: No effect
- Activity [9]: Active
- inhibition [10]: Active; Effect Was Better Than Ory-1001
- Activity [11]: Dose-dependent-effect
- Activity [12]: Active
- Activity [13]: Non-toxic
- Activity [14]: Active
- Activity [16]: Active
- Activity [19]: Non-toxic
- Activity [20]: inactive
- Activity [21]: Active
- Activity [23]: Non-toxic
- Activity [24]: No effect
- Activity [26]: Active
- Activity [27]: Dose-dependent-effect
- Activity [28]: 16.6%
- Activity [29]: Non-toxic
- Activity [31]: 6.46%
- Activity [32]: Active
- Activity [33]: No effect
- Activity [34]: Non-toxic
- Activity [35]: Active
- inhibition [36]: Active; Effect Was Better Than Ory-1001
- Activity [38]: No effect
- Activity [40]: Non-toxic
